Source: patent publication US20020037872A1, “N6 heterocyclic 5' modified adenosine derivatives” (CV Therapeutics, Inc., priority 1999, published 2002)
“Also recorded” adds a separate entry of the source.

Columns and labels:
[1] = seizures induced by DMCM; cited from earlier work
A1 adenosine receptor [2] = target: T1, A1 adenosine receptor (Cavia porcellus, UniProt P47745); assay: Guinea pig isolated perfused heart: S-H interval, heart rate, atrial MAP; details: for effect on atrial monophasic action potential: FIG. 1 panel B; for effect on AV nodal conduction time (S-H interval) / second-degree AV block: FIG. 1 panel C; for effect on heart rate (chronotropic): spontaneously beating hearts, FIG. 1 panel A
T1 construct: The hearts were quickly removed and rinsed in ice-cold Krebs-Henseleit solution; from tissue; host or cells: guinea pig isolated perfused heart
T1 sequence (P47745 1-326): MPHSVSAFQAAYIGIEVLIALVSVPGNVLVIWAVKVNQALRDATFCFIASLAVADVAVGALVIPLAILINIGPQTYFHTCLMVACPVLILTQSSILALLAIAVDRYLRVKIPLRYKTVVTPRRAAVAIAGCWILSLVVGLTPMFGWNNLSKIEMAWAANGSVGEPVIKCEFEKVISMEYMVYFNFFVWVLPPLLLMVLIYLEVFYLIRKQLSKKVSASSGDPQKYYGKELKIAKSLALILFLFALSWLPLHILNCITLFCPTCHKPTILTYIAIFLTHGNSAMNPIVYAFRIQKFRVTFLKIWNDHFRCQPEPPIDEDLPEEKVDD
Experimental: Guinea pigs of either sex weighing 250-300 g were anesthetized with methoxyflurane and killed by cervical dislocation. The hearts were quickly removed and rinsed in ice-cold Krebs-Henseleit solution. The aorta was cannulated and the heart retrogradely perfused at a constant flow of 10 ml min^−1 with modified Krebs-Henseleit solution containing (mM): NaCL 117.9, KCl 4.8, CaCl2 2.5, MgSO4 1.18, KH2PO4 1.2, Na2EDTA 0.5, ascorbic acid 0.14, glucose 5.5, pyruvic acid (sodium salt) 2.0, and NaHCO3 25. The K—H solution was oxygenated with 95% oxygen and 5% CO2, pH 7.4, and temperature maintained at 36° C.
Hearts were electrically paced at a cycle length of 290-300 ms (unless otherwise indicated) using a bipolar electrode placed on the right atrium or ventricle. The stimulator, an interval generator (Model 1830, WPI, Sarasota, Fla., U.S.A.) delivered stimuli through a stimulus isolation unit (Model 1880, WPI) as square wave pulses of 3 ms in duration and at least twice the threshold intensity. The stimulus-to-His bundle (S—H) interval was used as index of AV nodal conduction time and was measured on-line during constant atrial pacing from microcomputer with a DT-208 1A interface board (Axon Instruments, Burlingame, Calif., U.S.A.) In experiments to study the chronotropic effect (effect on heart rate) of A1 AdoR agonists, the hearts were allowed to beat spontaneously. An atrial electrogram was used to record the electrical activity of the atria and to measure the heart rate.
Monophasic action potentials (MAP) were recorded using a pressure contact silver-silver chloride electrode (Langendorf Probe, EP Technologies, Inc., Sunnyvale, Calif., U.S.A.) placed on the surface of the left atrium. […] Signals were considered adequate if they were stable for at least 5 min and the amplitudes of the MAPs exceeded 10 mV. The data were digitized at 2 kHz by a DT-2801A digitizing board (Data Translation, Marlboro, Mass., U.S.A.) and stored using the Snapshot data acquisition program (Snapshot Storage Scope, HEM Data Corp., Southfield, Mich., U.S.A.) for later analysis. The duration of the atrial monophasic action potential was measured at 90% repolarization (MAPD90), using the Snapshot program. After completion of dissection and instrumentation, the hearts were allowed to equilibrate for 30 min before the experiments were begun. Whenever the baseline and post-intervention (washout) values differed by more than 15% the data were discarded. Approximately 60-70% of the experiments conformed with this criteria.

A1 receptor [3] = target: T2, A1 receptor (Oryctolagus cuniculus, UniProt P34970); details: administered prior to ischemia; cited from earlier work
T2 construct: a rabbit ischemia model wherein 2-chloro-N6-cyclopentyladenosine (CCPA) and R-PIA were administered prior to ischemia; host or cells: rabbit in vivo
T2 sequence (P34970 1-328): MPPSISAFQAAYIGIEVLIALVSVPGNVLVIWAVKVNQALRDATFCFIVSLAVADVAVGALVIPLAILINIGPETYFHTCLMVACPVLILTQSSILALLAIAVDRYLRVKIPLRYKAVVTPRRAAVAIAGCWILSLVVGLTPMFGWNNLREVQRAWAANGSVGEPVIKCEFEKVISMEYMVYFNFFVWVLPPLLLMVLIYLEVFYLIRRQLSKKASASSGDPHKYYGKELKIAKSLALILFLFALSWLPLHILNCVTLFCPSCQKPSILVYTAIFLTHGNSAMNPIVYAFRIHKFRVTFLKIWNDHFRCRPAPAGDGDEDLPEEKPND

white adipocytes = details: cited from earlier work
A1 receptor [4] = target: A1 receptor (Cavia porcellus, UniProt P47745); details: chronic administration for 7 days; cited from earlier work
A1 adenosine receptor [5] = target: T3, A1 adenosine receptor (Mesocricetus auratus, UniProt A0A1U8BVR4); assay: cAMP assay (SPA) in DDT1 cells, forskolin-induced cAMP; format: cell-based, hamster
T3 construct: endogenous in cells; host or cells: DDT1 (DDT1 MF-2) hamster vas deferens smooth muscle cells
T3 sequence (A0A1U8BVR4 1-326): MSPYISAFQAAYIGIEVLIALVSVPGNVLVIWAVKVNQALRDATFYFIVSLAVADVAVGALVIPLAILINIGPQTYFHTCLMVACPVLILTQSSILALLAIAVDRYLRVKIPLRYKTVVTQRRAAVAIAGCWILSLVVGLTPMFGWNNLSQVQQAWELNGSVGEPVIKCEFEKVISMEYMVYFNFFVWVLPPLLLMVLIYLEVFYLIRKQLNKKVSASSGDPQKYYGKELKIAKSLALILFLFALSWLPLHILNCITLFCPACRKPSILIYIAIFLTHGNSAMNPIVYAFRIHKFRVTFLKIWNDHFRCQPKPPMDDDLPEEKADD
Experimental: A scintillation proximity assay (SPA) using rabbit antibodies directed at cAMP using an added tracer of adenosine 3′,5′-cyclic phosphoric acid 2′-O-succinyl-3-[^125I]iodotyrosine methyl ester and fluoromicrospheres containing anti-rabbit specific antibodies as described by Amersham Pharmacia Biotech (Biotrak cellular communication assays). Briefly, DDT1 cells were cultured in clear bottomed 96 well microtiter plates with opaque wells at concentrations between 10^4 to 10^6 cells per well in 40 μl of HBSS at 37° C. (5% CO2 and 95% humidity). The partial or full A1 agonists (5 μl) of this invention were incubated at various concentrations with the DDT1 cells in the presence of rolipram (50 μM), and 5 μM forskolin for 10 min at 37° C. The cells were immediately lysed by treatment 5 μl of 10% dodecyltrirnethylammonium bromide followed by shaking using rnicroplate shaker. After incubation of the plate for 5 minutes, an imnuunoreagent solution (150 μl containing equal volumes of tracer, antiserum, and SPA fluorospheres) was added to each well followed by sealing the plate. After 15-20 h at 23° C., the amount of bound [^125] cAM to the fluoromicrospheres was determined by counting in a microtitre plate scintillation counter for 2 minutes. Comparison of counts with standard curves generated for cAMP using a similar protocol afforded the cAMP present after cell lysis.

Question: Which anticonvulsant activity [1] does the source give for `Cc1ccccc1CNc1ncnc2c1ncn2[C@@H]1O[C@H](CO)[C@@H](O)[C@H]1O` [metrifudil] here?
Answer: potent anticonvulsant

Question: For `OC[C@H]1O[C@@H](n2cnc3c(NC4CCCC4)nc(Cl)nc32)[C@H](O)[C@@H]1O` [CCPA, 2-chloro-N6-cyclopentyladenosine], which “effect on atrial monophasic action potential” value (A1 adenosine receptor [2]) is on record?
Answer: shortened the monophasic atrial action potential

Question: What about the “effect on AV nodal conduction time (S-H interval)” value (A1 adenosine receptor [2]) of the same molecule?
Answer: prolonged the S—H interval

Question: What about the “second-degree AV block” value (A1 adenosine receptor [2]) of the same molecule?
Answer: caused second-degree AV block

Question: What about the “effect on heart rate (chronotropic)” value (A1 adenosine receptor [2]) of the same molecule?
Answer: slowed heart rate

Question: What about the “protection with respect to infarct size” value (A1 receptor [3]) of the same molecule?
Answer: providing protection with respect to infarct size

Question: For `C[C@H](Cc1ccccc1)Nc1ncnc2c1ncn2[C@@H]1O[C@H](CO)[C@@H](O)[C@H]1O` [R-PIA, R-N6-phenylisopropyladenosine], which leptin release (white adipocytes) is on record?
Answer: increase the leptin released from white adipocytes

Question: And the “desensitization of A1 receptor (dromotropic response)” value (A1 receptor [4])?
Answer: led to a desensitization

Question: With `O=c1[nH]c(=O)c2[nH]c(C3CCCC3)nc2[nH]1` [CPX, 8-cyclopentylxanthine] as the molecule, how does the “antagonism of S-H interval prolongation caused by Compound 6” value (A1 adenosine receptor [2]; CPX 50 nM, cycle length 300 msec, FIG. 2) read?
Answer: significant (P<0.05); also recorded: antagonizes the prolongation of S—H interval caused by compound 6

Question: With `OC[C@H]1O[C@@H](n2cnc3c(NC4CCCC4)ncnc32)[C@H](O)[C@@H]1O` [CPA, N-6-cyclopentyladenosine] as the molecule, how does the “effect on forskolin induced cAMP generation” value (A1 adenosine receptor [5]; DDT1 cells) read?
Answer: diminished the amount of forskolin induced cAMP generation back to basal levels

Question: And the cAMP (A1 adenosine receptor [5]; normalized to full agonist CPA, 5 μM forskolin, 50 μM rolipram)?
Answer: 100%

Question: What about the “second degree AV block” value (A1 adenosine receptor [2]; 30 nM CPA, four hearts) of the same molecule?
Answer: Second degree AV block occurred in all hearts

Question: And the “effect on atrial monophasic action potential” value (A1 adenosine receptor [2])?
Answer: shortened the monophasic atrial action potential

Question: And the “effect on AV nodal conduction time (S-H interval)” value (A1 adenosine receptor [2])?
Answer: prolonged the S—H interval

Question: What about the “second-degree AV block” value (A1 adenosine receptor [2]) of the same molecule?
Answer: caused second-degree AV block

Question: What about the “effect on heart rate (chronotropic)” value (A1 adenosine receptor [2]) of the same molecule?
Answer: slowed heart rate
